Tested on: JEG-3 (human placental choriocarcinoma cell line)
Experiment: Oligo microarray gene expression in drug-treated JEG-3 (Cy5 treated / Cy3 control)
Format: cell-based
Protocol: Thalidomide, valproic acid, and methotrexate were treated to human placental choriocarcinoma cell line at the concentrations determined above (Inhibition concentration: the concentration that can kill approximately 30% of the total cells, that is the concentration of 70% viability, IC30). mRNA was extracted from the drug treated cell line, followed by synthesis of cDNA which was labeled with Cy5. The non-treated control was labeled with Cy3. The fluorescence labeled cDNA was hybridized with 41K (thalidomide), 44K (valproic acid, methotrexate) human whole genome oligomicroarray chips (Agilent, USA), followed by fluorescent image scanning to analyze gene expression patterns (see FIG. 4). Volcano Plot of each substance was also attached. Y axis indicates probability (generally converted by −log 10). X axis indicates differential expression, which is presented by log-ratio.
Total RNA was separated from the treated cell by using trizol reagent (Invitrogen Life Technologies, USA) according to the manufacture's instructions, followed by purification using RNeasy mini kit (Qiagen, USA). Genomic DNA was eliminated during RNA purification using RNase-free DNase set (Qiagen, USA).
30 μg of the total RNA obtained above and 2 μg (1 μg/μl) of oligo (dT) primer were mixed, followed by reaction at 65° C. for 10 minutes. Annealing was performed in ice right after the reaction. Reagents were prepared as shown in Table 1 for reverse transcription of the annealed RNA.
The total RNA separated from the control group JEG-3 cells was labeled with Cy3-dUTP (green) and the total RNA separated from the experiment group JEG-3 cells treated with thalidomide, valproic acid and methotrexate was labeled with Cy5-dUTP (red). At this time, the two samples were mixed and purified by Microcon YM-30 column (Millipore, USA).
Hybridization and washing were performed by the manufacturer's (GenoCheck, Korea) instructions. Particularly, hybridization was performed in a 62° C. oven for 12 hours. As a DNA microarray chip, 44 k whole human genome oligo microarray (Agilent, USA) was used. After washing (2 minutes with 2×SSC/0.1% SDS, three minutes with 1×SSC, 2 minutes with 0.2×SSC), the slide was dried by centrifugation at 800 rpm for 3 minutes.
Hybridization image on the slide was scanned with Genepix 4000B (Axon Instruments, USA). Fluorescence image of the chip on which non-hybridized genes had been washed out was obtained by using laser fluorescence scanner. Green fluorescence image indicates the activity of gene specifically expressed in the control group and red fluorescence image indicates the activity of gene specifically expressed in the experimental group. […] Scanned image was analyzed by using GenePix 4.1 software (Axon Instruments, USA) to calculate gene expression rate.

CN(Cc1cnc2nc(N)nc(N)c2n1)c1ccc(C(=O)N[C@@H](CCC(=O)O)C(=O)O)cc1 [MTX, methotrexate]
cDNA microarray (Cy3/Cy5 ratio), KIAA0310 (GenBank AB002308): 2.29 | cDNA microarray (Cy3/Cy5 ratio), ATP10B (GenBank AB018258): 4.95 | cDNA microarray (Cy3/Cy5 ratio), TTF2 (GenBank AB209845): 1.94 | cDNA microarray (Cy3/Cy5 ratio), TncRNA (GenBank AF001893): 2.11 | cDNA microarray (Cy3/Cy5 ratio), C4orf19 (GenBank AK001879): 4.69 | cDNA microarray (Cy3/Cy5 ratio), CYP19A1 (GenBank AK023571): 2.72 | cDNA microarray (Cy3/Cy5 ratio), SLC40A1 (GenBank AK023574): 3.06 | cDNA microarray (Cy3/Cy5 ratio), ABTB2 (GenBank AK095632): 4.65 | cDNA microarray (Cy3/Cy5 ratio), TUBB3 (GenBank AK122757): 7.85 | cDNA microarray (Cy3/Cy5 ratio), MGC27016 (GenBank AK125877): 1.52 | cDNA microarray (Cy3/Cy5 ratio), GLCCI1 (GenBank AK126731): 2.84 | cDNA microarray (Cy3/Cy5 ratio), TFCP2L4 (GenBank BC036890): 4.11 | cDNA microarray (Cy3/Cy5 ratio), RGS2 (GenBank BC042755): 9.24 | cDNA microarray (Cy3/Cy5 ratio), SIAT7A (GenBank BC063830): 15.01 | cDNA microarray (Cy3/Cy5 ratio), B7-H4 (GenBank BX648021): 0.27 | cDNA microarray (Cy3/Cy5 ratio), COBLL1 (GenBank BX649112): 4.89 | cDNA microarray (Cy3/Cy5 ratio), CGA (GenBank NM_000735): 8.07 | cDNA microarray (Cy3/Cy5 ratio), PARP1 (GenBank NM_001618): 0.6 | cDNA microarray (Cy3/Cy5 ratio), SERPINB9 (GenBank NM_004155): 4.04 | cDNA microarray (Cy3/Cy5 ratio), ST8SIA4 (GenBank NM_005668): 1.82 | cDNA microarray (Cy5 treated / Cy3 control ratio), ABL1 (GenBank NM_007313): 0.49 | cDNA microarray (Cy3/Cy5 ratio), GRLF1 (GenBank NM_024342): 0.29 | cDNA microarray (Cy3/Cy5 ratio), LGP1 (GenBank NM_032484): 0.49 | cDNA microarray (Cy3/Cy5 ratio), NCOA3 (GenBank NM_181659): 2.12 | cDNA microarray (Cy3/Cy5 ratio), SR140 (GenBank XM_031553): 0.66 | cDNA microarray (Cy3/Cy5 ratio), SLC7A8 (GenBank Y18483): 3.76 | Ratio of intermediate value, NLGN1 (Genbank AB028993, drug at IC30): 0.25 | Ratio of intermediate value, VARS2L (Genbank AB067472, drug at IC30): 0.46 | Ratio of intermediate value, PPAT (Genbank AB209246, drug at IC30): 0.44 | Ratio of intermediate value, SEMA3B (Genbank AB209322, drug at IC30): 0.48 | Ratio of intermediate value, SCLY (Genbank AB209458, drug at IC30): 0.41 | Ratio of intermediate value, C8orf1 (Genbank AF061326, drug at IC30): 0.46 | Ratio of intermediate value, KUB3 (Genbank AF078164, drug at IC30): 0.45 | Ratio of intermediate value, GTF2H2 (Genbank AF078847, drug at IC30): 0.44 | Ratio of intermediate value, PARD3 (Genbank AF196185, drug at IC30): 0.28 | Ratio of intermediate value, Homo sapiens cDNA FLJ12651 fis, clone NT2RM4002062 (Genbank AK022713, drug at IC30): 0.21 | Ratio of intermediate value, BCAT2 (Genbank AK023909, NM_001190, drug at IC30): 0.35 | Ratio of intermediate value, ASS (Genbank AK027126, drug at IC30): 0.19 | Ratio of intermediate value, SHMT2 (Genbank AK055053, drug at IC30): 0.42 | Ratio of intermediate value, FLJ23441 (Genbank AK056980, drug at IC30): 0.41 | Ratio of intermediate value, RUVBL2 (Genbank AK057498, drug at IC30): 0.42 | Ratio of intermediate value, ERCC2 (Genbank AK092872, drug at IC30): 0.40 | Ratio of intermediate value, PHGDH (Genbank AK093306, drug at IC30): 0.16 | Ratio of intermediate value, GLUD1 (Genbank AK122685, drug at IC30): 0.34 | Ratio of intermediate value, HMGB1 (Genbank AK122825, drug at IC30): 0.37 | Ratio of intermediate value, YARS (Genbank AK125213, drug at IC30): 0.38 | Ratio of intermediate value, FANCF (Genbank BC005077, NM_022725, drug at IC30): 0.40 | Ratio of intermediate value, C9orf103 (Genbank BC036421, drug at IC30): 0.38 | Ratio of intermediate value, CAD (Genbank BC065510, drug at IC30): 0.40 | Ratio of intermediate value, GRLF1 (Genbank BI494022, NM_024342, drug at IC30): 0.29 | Ratio of intermediate value, CIB1 (Genbank BM467105, drug at IC30): 0.44 | Ratio of intermediate value, RAD51L1 (Genbank BX248766, drug at IC30): 0.43 | Ratio of intermediate value, NBS1 (Genbank BX640816, drug at IC30): 0.31 | Ratio of intermediate value, B7-H4 (Genbank BX648021, drug at IC30): 0.27 | Ratio of intermediate value, APEX1 (Genbank CR611116, drug at IC30): 0.33 | Ratio of intermediate value, GNAO1 (Genbank CR936770, drug at IC30): 0.49 | Ratio of intermediate value, DCLRE1A (Genbank D42045, drug at IC30): 0.43 | Ratio of intermediate value, CBS (Genbank L00972, drug at IC30): 0.47 | Ratio of intermediate value, ATM (Genbank NM_000051, drug at IC30): 0.48

From US8445207B2, “Genes based on thalidomide, valproic acid and methotrexate treatment for screening of drug inducing teratogenicity and screening method using thereof” (priority 2009, dated 2013)
